These results are taken from US7011834B1, “Immunomodulating dimers” (The Board of Trustees of Leland Stanford Junior University, priority 1987, dated 2006).

Where no end group is shown, it is not given here.

The subject of data set [1] is CD8+CTL line specific for HLA-A2. Description: Cytotoxicity assay: inhibition of lysis by established CTL, 51Cr-labeled JY targets. It counts as cell-based, human. To be noted: for inhibition of lysis by established CTL: HLA-A2 specific CD8+CTL, JY targets, peptides 100 μg/ml, 4 h assay. On the procedure:
Cytotoxicity Assay. CTL assays were performed as described using ^51Cr-labeled EBV transformed B cells expressing the appropriate HLA allele as targets [[…] et al., J. Immunol. (1982) 129:2001]. In the present protocol, a CD8+CTL line specific for HLA-A2 was tested in the presence of various peptides for lysis of ^51Cr-labeled JY targets. Peptides were added to a final concentration of 100 μg/ml at the initiation of the 4 h assay. Each determination was the mean of triplicate wells. […] In these determinations, inhibition of cytolysis, as described above, employed the CTL cell line AJY, a long term CD8+CTL line specific for HLA-A2 and the target cell was the B-lymphoblastoid cell line JY (HLA-A2, B7). The cytotoxicity assay was performed as described by Clayberger et al., J. Exp. Med. (1984) 162:1709-1714; and Reiss et al., Proc Natl Acad Sci USA (1980) 77:5432-5436. The peptides were preincubated for 30 min with 1-3×10^3 CTLs before addition of 10^3 51Cr-labeled B-lymphoblastoid target cells. The results are reported for varying concentrations of the peptide with varying ratios of the two cell lines.

Data set [2] in a line: Half-life of peptide in rats. To be noted: rat, in vivo, preliminary studies. On the procedure: Therefore, we tested whether splenocytes obtained from rats treated with the peptides in vivo could differentiate into CTL ex vivo. In preliminary studies, the half-life of the B7.75-84 peptide was determined to be 2–3 hours in rats.
The test system of data set [3] is Lew specific CTL precursors in splenocytes. Briefly: Limiting dilution assay for CTL precursors in splenocytes after in vivo peptide. Further details: species or system rat. Conditions: PVG rats; for [CTL precursor frequency]^−1: single iv 2 mg, Lew stimulators. On the procedure:
The effect of peptides on CTL precursor frequencies in splenocytes was tested as follows. Limiting dilution analysis was carried out essentially as described (Moeller et al. 1993, supra; Skinner and Marbrook. J. Exp. Med. (1976) 143:1562). Briefly, spleens were removed from naive animals or from animals that had received an allograft a minimum of 60 days earlier and then teased into a single cell suspension. Responder cells were plated from 1000 to 40,000 cells per well (24 replicates per concentration) into round bottom microliter wells in RPMI 1640 supplemented with 10% fetal bovine serum (Hyclone, Logan, Utah), 2 mM L-glutamine, 5×10^−5M β-mercaptoethanol, 100 U/ml penicillin, 100 μg/ml streptomycin, 20% supernatant from Concanavalin A activated rat spleen cells, and 50 μM α-methyl mannoside. Then, 5×10^5 irradiated (2000 rads) stimulator cells were added to each well and plates were incubated in a humidified CO2 incubator. After 5 days, aliquots were removed and tested for lysis of ^51Cr-labeled Concanavalin A activated blasts. Aliquots of supernatant were counted in a gamma counter and CTL precursor frequency determined by linear regression (Skinner and Marbrook. 1976, supra). Wells were considered positive if specific release was >10%.
PVG (RT1^c) or ACI […] rats were treated with a single intravenous injection of saline or 2 mg of A2.75-84, B7.75-84, B2702.75-84, or RT1^a.75-84 peptide. Their spleens were removed on different days after peptide treatment, cultured under limiting dilution conditions for 5 days with irradiated (2000R) splenocytes from Lewis rats; i.e., Lew (RT1^1) stimulator cells, and assayed for lysis of ^51Cr-labeled Lew blasts. CTL precursor frequency was determined by linear regression analysis.

For “B7.84–75/75–84: SEQ ID NO:27 (also NO:35); Table 1 sequence read from dashes: YGRLNRLSERRESLRNLRGY (listed as Homo sapiens)”, the “inhibition of lysis by established CTL” value in data set [1] is given as “did not inhibit CTL-mediated lysis at any concentration tested”. In the case of “B2702.70–84: SEQ ID NO:33, the 15-mer; Table 1 sequence read from dashes: KAQTDRENLRIALRY (listed as Homo sapiens)”, the “inhibition of lysis by established CTL” value in data set [1] is “comparably effective in inhibiting cytolysis to B2072.75-84”. On the same count and under the same terms, the same measure for “B2702.75–84T^80: SEQ ID NO:25; threonine replaces isoleucine at position 80: RENLRTALRY (listed as Homo sapiens)”: “did not inhibit lysis”; for “REDLRIALRY (listed as Homo sapiens) [B2702.75–84D^77, aspartic replaces asparagine at position 77]”: “did not inhibit lysis”; for “RENLRILLRY (listed as Homo sapiens) [B2702.75–84L^81, leucine replaces alanine at position 81]”: “inhibited lysis comparably to 02.75-84”. As a reminder, the half-life is the time needed for the level to fall by half in the phase considered. Low readings indicate fast loss, high ones slow loss. RESLRNLRGY [B7.75–84] displayed a half-life in data set [2] of 2 to 3 h.

On to “RVDLRTLRGY (listed as Homo sapiens) [RT1A.75–84, peptide corresponding to the same residues from a rat MHC class I molecule, reference compound]”, for which the “[CTL precursor frequency]^−1” value in data set [3] (0 days after peptide injection) was 56,583; in data set [3] (1 day after peptide injection) it was 54,631; in data set [3] (7 days after peptide injection), 55,647; in data set [3] (10 days after peptide injection) it was 56,583. Further, the “precursor frequency of Lew specific cells in splenocytes (1 in)” value in data set [3] (independent of the day on which the spleen was removed) is listed as ~55,000. For the substance WDRETQICKAKAQTDRENLRIALRY [B2702.60–84], the “potency relative to B2702.75-84, based on concentration required to achieve 50% inhibition of cytotoxicity” value in data set [1] was “approximately 5 fold”.
